Source: PMC9880324, “Sugar perception in honeybees” (Frontiers in Physiology, 2023)

Legend:
[1] = molecular target: T1, AmGr3 (Apis mellifera, UniProt A0A7M7IGL4); assay: two-electrode voltage clamp, Xenopus oocytes; format: cell-based; details: 160 mM sugar, pH 7.5, -80 and -140 mV; agonist
T1 construct: gene LOC725483; cDNA cloned from taste tissue, subcloned in pNBIu, cRNA expressed alone in Xenopus oocytes
T1 sequence (A0A7M7IGL4 1-474): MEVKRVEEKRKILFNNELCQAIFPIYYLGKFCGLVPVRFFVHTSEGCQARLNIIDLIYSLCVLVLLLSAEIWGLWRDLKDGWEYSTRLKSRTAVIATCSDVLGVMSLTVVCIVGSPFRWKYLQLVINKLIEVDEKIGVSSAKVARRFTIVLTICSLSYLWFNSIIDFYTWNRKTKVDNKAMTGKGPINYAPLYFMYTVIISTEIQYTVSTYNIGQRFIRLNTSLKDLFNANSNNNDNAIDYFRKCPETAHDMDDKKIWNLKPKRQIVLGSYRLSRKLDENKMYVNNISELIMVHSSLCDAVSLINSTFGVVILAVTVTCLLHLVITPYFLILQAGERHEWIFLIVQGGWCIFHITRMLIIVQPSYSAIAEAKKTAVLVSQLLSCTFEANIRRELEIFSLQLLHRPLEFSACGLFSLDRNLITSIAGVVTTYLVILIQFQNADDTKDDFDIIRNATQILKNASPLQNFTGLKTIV

[2] = molecular target: T2, AmGr2 (Apis mellifera, UniProt A0A7M7R6T6); assay: two-electrode voltage clamp, Xenopus oocytes; format: cell-based; details: 160 mM sugar, pH 7.5, -80 mV, agonist
T2 construct: gene LOC413684; cDNA cloned from taste tissue, subcloned in pNBIu, cRNA expressed alone in Xenopus oocytes; homomer
T2 sequence (A0A7M7R6T6 1-470): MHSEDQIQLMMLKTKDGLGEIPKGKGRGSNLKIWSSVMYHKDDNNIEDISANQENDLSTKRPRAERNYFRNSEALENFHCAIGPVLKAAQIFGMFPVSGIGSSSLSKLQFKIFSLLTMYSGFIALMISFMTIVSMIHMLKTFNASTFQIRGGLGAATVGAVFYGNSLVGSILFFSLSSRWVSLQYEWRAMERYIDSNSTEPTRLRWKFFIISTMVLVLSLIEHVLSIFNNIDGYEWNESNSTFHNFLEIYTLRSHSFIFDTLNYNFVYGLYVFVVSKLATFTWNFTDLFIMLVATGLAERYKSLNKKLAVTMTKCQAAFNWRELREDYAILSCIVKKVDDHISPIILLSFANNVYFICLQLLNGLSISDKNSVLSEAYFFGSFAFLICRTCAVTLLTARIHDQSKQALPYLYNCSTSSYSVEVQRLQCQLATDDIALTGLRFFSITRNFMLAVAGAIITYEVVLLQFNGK

Structure (SMILES): OCC1(O)OC[C@@H](O)[C@@H](O)[C@@H]1O (stereo partly drawn) [fructose]
- two-electrode voltage clamp, Xenopus oocytes [1]: The sole expression of AmGr3 in oocytes revealed only fructose-induced current responses

Structure (SMILES): OC[C@H]1OC(O)[C@H](O)[C@@H](O)[C@@H]1O (stereo partly drawn) [glucose]
- two-electrode voltage clamp, Xenopus oocytes ([2]; transient microscopic inward current): AmGr2-expression revealed transient inward currents during glucose application

Structure (SMILES): OC[C@H]1O[C@@](CO)(O[C@H]2O[C@H](CO)[C@@H](O)[C@H](O)[C@H]2O)[C@@H](O)[C@@H]1O [sucrose]
- two-electrode voltage clamp, Xenopus oocytes ([2]; microscopic inward current): Sustained inward currents could only be generated by application of sucrose
